Experimental data from patent EP4471049A1 (Zealand Pharma A/S, priority 2023, dated 2024).
Like-named read-outs stand apart in the source and are kept apart here. *1 amine or outer side, *2 acyl side, *3 side chain or, on linkers, in order; H or OH if unused. Where a SMILES comes first, the peptide text is derived from it. Bridges are numbered along the chain shown (N, C = ends). [ ]: non-standard residue; d: D form. 2Nal = N[C@@H](Cc1ccc2ccccc2c1)C(=O)O; AEF = NCCOc1ccc(C[C@H](N)C(=O)O)cc1; X1 = O=C(Cc1ccc(CN[*:1])cc1)[*:2]; 3Pal = N[C@@H](Cc1cccnc1)C(=O)O; αMeL = CC(C)C[C@](C)(N)C(=O)O; Dab = NCC[C@H](N)C(=O)O; Sar = CNCC(=O)O

Experiments:
[1] = target: T1, human IL-23R (Homo sapiens, UniProt Q5VWK5); experiment: biochemical
T1 sequence (Q5VWK5 22-629): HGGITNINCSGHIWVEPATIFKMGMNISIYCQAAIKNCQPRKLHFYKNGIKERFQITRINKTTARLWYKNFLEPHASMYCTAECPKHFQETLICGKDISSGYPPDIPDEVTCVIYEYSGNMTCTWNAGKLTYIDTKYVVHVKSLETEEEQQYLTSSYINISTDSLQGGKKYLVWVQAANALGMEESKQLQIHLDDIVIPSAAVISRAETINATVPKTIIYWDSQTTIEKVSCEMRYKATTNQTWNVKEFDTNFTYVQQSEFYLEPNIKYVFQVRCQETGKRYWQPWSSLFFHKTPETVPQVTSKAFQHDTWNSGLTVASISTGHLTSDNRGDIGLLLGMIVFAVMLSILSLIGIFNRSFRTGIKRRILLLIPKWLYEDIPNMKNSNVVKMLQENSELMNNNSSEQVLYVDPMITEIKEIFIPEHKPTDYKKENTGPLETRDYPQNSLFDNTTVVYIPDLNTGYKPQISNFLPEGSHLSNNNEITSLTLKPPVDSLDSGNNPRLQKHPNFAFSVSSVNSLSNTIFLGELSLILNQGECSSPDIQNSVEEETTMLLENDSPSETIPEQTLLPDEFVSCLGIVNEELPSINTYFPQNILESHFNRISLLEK
Outline: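 BRET displacement of a TAMRA-labelled reference compound from N-terminal Nanoluc-IL-23R fusion protein in membranes from stably transfected HEK293 cells. Incubation 2 h at room temperature, then Nanoluc substrate was added and the TAMRA/Nanoluc ratio read. IC50 and maximal displacement came from 4-parameter logistic fits.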

[2] = Peptide stability in simulated intestinal fluid (SIF); type: in vitro ADME; conditions: for remaining at 4 h, 10 µM / remaining at 1 h, 10 µM: pig, simulated intestinal fluid (SIF) with porcine pancreatin
Outline: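 Peptides were incubated at 37 °C with gentle shaking in pH 6.8 potassium phosphate SIF containing porcine pancreatin (10 g/L). Supernatants were analysed by LC-HRMS. Percent remaining at each timepoint, including 4 h, was calculated relative to time zero from absolute peak areas.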

[3] = pH 6.8, Example 2 (Tables 2-1 to 2-4), intact peptide remaining after 4 h, read-out: SIF (% after 4 h)
[4] = 37 °C, pH 6.8, porcine pancreatin 10 g/L, 10 µM
[5] = 4 h, 37 °C, pH 6.8, porcine pancreatin 10 g/L, 10 µM

% displacement (hIL-23R binding) [1] [%]	IC50 [1] [nM]	remaining at 4 h, 10 µM [2, 3] [%]	remaining at 1 h, 10 µM [2, 4] [%]	SIF (% remaining 4 h) [2, 5] [%]	Emax ([1]; read-out: % displacement (hIL-23R binding)) [%]	SIF (% after 4 h) ([2]; Example 2 (Tables 2-1 to 2-4), intact peptide remaining after 4 h) [%]	remaining at 4 h, 10 µM ([2]; 4 h, 37 °C, pH 6.8, porcine pancreatin 10 g/L, 10 µM, read-out: SIF (% remaining 4 h)) [%]	SMILES
99	0.093	41		41				CC(C)C[C@]1(C)NC(=O)[C@H](Cc2ccc3ccccc3c2)NC(=O)[C@H](Cc2ccc(OCCN)cc2)NC(=O)[C@@H]2CCNC(=O)CC[C@H](NC(=O)[C@H](CO)NC(=O)Cc3ccc(cc3)CNC(=O)CC[C@@H](C(=O)N[C@@H](CCN)C(=O)N[C@H](Cc3cccnc3)C(N)=O)NC1=O)C(=O)N[C@@H](Cc1c[nH]c3ccccc13)C(=O)N[C@@H](CCC(N)=O)C(=O)N2 [Compound 5, [4-Aminomethyl-phenylacetyl](1c)*SE(2c)WQ[Dab](2c)[Y(2-aminoethoxy)][2-Nal][2-Me-Leu]E(1c)[Dab][{d}3-(3-Pyridyl)-Ala]-[NH2]]
91	0.0058	11	34	11				CC(C)C[C@]1(C)NC(=O)[C@H](Cc2ccc3ccccc3c2)NC(=O)[C@H](Cc2ccc(OCCN)cc2)NC(=O)[C@@H]2CCNC(=O)CC[C@H](NC(=O)[C@H](CO)NC(=O)Cc3ccc(cc3)CNC(=O)CC[C@@H](C(=O)N[C@@H](CCN)C(=O)N[C@@H](Cc3cccnc3)C(=O)N[C@H](Cc3c[nH]cn3)C(N)=O)NC1=O)C(=O)N[C@@H](Cc1c[nH]c3ccccc13)C(=O)N[C@@H](CCC(N)=O)C(=O)N2 [Compound 10, [4-Aminomethyl-phenylacetyl](1c)*SE(2c)WQ[Dab](2c)[Y(2-aminoethoxy)][2-Nal][2-Me-Leu]E(1c)[Dab][3-(3-Pyridyl)-Ala][{d}H]-[NH2]] ([X1]SEWQ[Dab][AEF][2Nal][αMeL]E[Dab][3Pal][dH]-NH2; lactam 3-6, N-10)
104	0.057		60				2	CC(C)C[C@]1(C)NC(=O)[C@H](Cc2ccc3ccccc3c2)NC(=O)[C@H](Cc2ccc(OCCN)cc2)NC(=O)[C@@H]2CCNC(=O)CC[C@H](NC(=O)[C@H](CO)NC(=O)Cc3ccc(cc3)CNC(=O)CC[C@@H](C(=O)N[C@@H](CCN)C(=O)N[C@@H](Cc3c[nH]cn3)C(=O)N[C@@H](Cc3cccnc3)C(N)=O)NC1=O)C(=O)N[C@@H](Cc1c[nH]c3ccccc13)C(=O)N[C@@H](CCC(N)=O)C(=O)N2 [Compound 12, [4-Aminomethyl-phenylacetyl](1c)*SE(2c)WQ[Dab](2c)[Y(2-aminoethoxy)][2-Nal][2-Me-Leu]E(1c)[Dab]H[3-(3-Pyridyl)-Ala]-[NH2]] ([X1]SEWQ[Dab][AEF][2Nal][αMeL]E[Dab]H[3Pal]-NH2; lactam 3-6, N-10)

The remaining lines, values behind:

SMILES	% displacement (hIL-23R binding) [1] [%]	IC50 [1] [nM]	remaining at 4 h, 10 µM [2, 3] [%]	remaining at 1 h, 10 µM [2, 4] [%]	SIF (% remaining 4 h) [2, 5] [%]	Emax ([1]; read-out: % displacement (hIL-23R binding)) [%]	SIF (% after 4 h) ([2]; Example 2 (Tables 2-1 to 2-4), intact peptide remaining after 4 h) [%]	remaining at 4 h, 10 µM ([2]; 4 h, 37 °C, pH 6.8, porcine pancreatin 10 g/L, 10 µM, read-out: SIF (% remaining 4 h)) [%]
CC(C)C[C@]1(C)NC(=O)[C@H](Cc2ccc3ccccc3c2)NC(=O)[C@H](Cc2ccc(OCCN)cc2)NC(=O)[C@@H]2CCNC(=O)CC[C@H](NC(=O)[C@H](CO)NC(=O)Cc3ccc(cc3)CNC(=O)CC[C@@H](C(=O)N[C@@H](CCN)C(=O)N[C@@](C)(Cc3cccnc3)C(N)=O)NC1=O)C(=O)N[C@@H](Cc1c[nH]c3ccccc13)C(=O)N[C@@H](CCC(N)=O)C(=O)N2 [Compound 3, [4-Aminomethyl-phenylacetyl](1c)*SE(2c)WQ[Dab](2c)[Y(2-aminoethoxy)][2-Nal][2-Me-Leu]E(1c)[Dab][2-Me-3-(3-Pyridyl)-Ala]-[NH2]]	99	0.034	109	115				
CC(C)C[C@]1(C)NC(=O)[C@H](Cc2ccc3ccccc3c2)NC(=O)[C@H](Cc2ccc(OCCN)cc2)NC(=O)[C@@H]2CCNC(=O)CC[C@H](NC(=O)[C@H](CO)NC(=O)Cc3ccc(cc3)CNC(=O)CC[C@@H](C(=O)N[C@@H](CCN)C(=O)N(C)[C@@H](Cc3cccnc3)C(N)=O)NC1=O)C(=O)N[C@@H](Cc1c[nH]c3ccccc13)C(=O)N[C@@H](CCC(N)=O)C(=O)N2 [Compound 4, [4-Aminomethyl-phenylacetyl](1c)*SE(2c)WQ[Dab](2c)[Y(2-aminoethoxy)][2-Nal][2-Me-Leu]E(1c)[Dab][N-Me-3-(3-Pyridyl)-Ala]-[NH2]]	111		89					
CC(C)C[C@]1(C)NC(=O)[C@H](Cc2ccc3ccccc3c2)NC(=O)[C@H](Cc2ccc(OCCN)cc2)NC(=O)[C@@H]2CCNC(=O)CC[C@H](NC(=O)[C@H](CO)NC(=O)Cc3ccc(cc3)CNC(=O)CC[C@@H](C(=O)N[C@@H](CCN)C(=O)NCCCCc3cccnc3)NC1=O)C(=O)N[C@@H](Cc1c[nH]c3ccccc13)C(=O)N[C@@H](CCC(N)=O)C(=O)N2 [Compound 6, [4-Aminomethyl-phenylacetyl](1c)*SE(2c)WQ[Dab](2c)[Y(2-aminoethoxy)][2-Nal][2-Me-Leu]E(1c)[Dab]-[NH-(4-(pyridin-3-yl)butanyl)]]	103		73		73			
CC(C)C[C@]1(C)NC(=O)[C@H](Cc2ccc3ccccc3c2)NC(=O)[C@H](Cc2ccc(OCCN)cc2)NC(=O)[C@@H]2CCNC(=O)CC[C@H](NC(=O)[C@H](CO)NC(=O)Cc3ccc(cc3)CNC(=O)CC[C@@H](C(=O)N[C@@H](CCN)C(=O)NCCc3cccnc3)NC1=O)C(=O)N[C@@H](Cc1c[nH]c3ccccc13)C(=O)N[C@@H](CCC(N)=O)C(=O)N2 [Compound 7, [4-Aminomethyl-phenylacetyl](1c)*SE(2c)WQ[Dab](2c)[Y(2-aminoethoxy)][2-Nal][2-Me-Leu]E(1c)[Dab]-[NH-(2-(pyridin-3-yl)ethyl)]]		0.012			130	102	130	
CNC(=O)[C@H](Cc1cccnc1)NC(=O)[C@H](CCN)NC(=O)[C@@H]1CCC(=O)NCc2ccc(cc2)CC(=O)N[C@@H](CO)C(=O)N[C@H]2CCC(=O)NCC[C@H](NC(=O)[C@H](CCC(N)=O)NC(=O)[C@H](Cc3c[nH]c4ccccc34)NC2=O)C(=O)N[C@@H](Cc2ccc(OCCN)cc2)C(=O)N[C@@H](Cc2ccc3ccccc3c2)C(=O)N[C@@](C)(CC(C)C)C(=O)N1 [Compound 8, [4-Aminomethyl-phenylacetyl](1c)*SE(2c)WQ[Dab](2c)[Y(2-aminoethoxy)][2-Nal][2-Me-Leu]E(1c)[Dab][3-(3-Pyridyl)-Ala]-[NHMe]]	103	0.0098	105					
CC(C)C[C@]1(C)NC(=O)[C@H](Cc2ccc3ccccc3c2)NC(=O)[C@H](Cc2ccc(OCCN)cc2)NC(=O)[C@@H]2CCNC(=O)CC[C@H](NC(=O)[C@H](CO)NC(=O)Cc3ccc(cc3)CNC(=O)CC[C@@H](C(=O)N[C@@H](CCN)C(=O)N[C@@H](Cc3cccnc3)C(=O)N(C)CC(N)=O)NC1=O)C(=O)N[C@@H](Cc1c[nH]c3ccccc13)C(=O)N[C@@H](CCC(N)=O)C(=O)N2 [Compound 9, [4-Aminomethyl-phenylacetyl](1c)*SE(2c)WQ[Dab](2c)[Y(2-aminoethoxy)][2-Nal][2-Me-Leu]E(1c)[Dab][3-(3-Pyridyl)-Ala][Sar]-[NH2]] ([X1]SEWQ[Dab][AEF][2Nal][αMeL]E[Dab][3Pal][Sar]-NH2; lactam 3-6, N-10)	100	0.0053	105					
CC(C)C[C@]1(C)NC(=O)[C@H](Cc2ccc3ccccc3c2)NC(=O)[C@H](Cc2ccc(OCCN)cc2)NC(=O)[C@@H]2CCNC(=O)CC[C@H](NC(=O)[C@H](CO)NC(=O)Cc3ccc(cc3)CNC(=O)CC[C@@H](C(=O)N[C@@H](CCN)C(=O)N[C@H](Cc3c[nH]cn3)C(N)=O)NC1=O)C(=O)N[C@@H](Cc1c[nH]c3ccccc13)C(=O)N[C@@H](CCC(N)=O)C(=O)N2 [Compound 13, [4-Aminomethyl-phenylacetyl](1c)*SE(2c)WQ[Dab](2c)[Y(2-aminoethoxy)][2-Nal][2-Me-Leu]E(1c)[Dab][{d}H]-[NH2]]	100	0.059	56		56			
